Read-outs that look alike come from different tables or passages of the source.
How the values were obtained:
[1] = Compatibility study, closed container: sum of impurities by HPLC
Method: Afterwards, the two components were blended in Turbula® at 72 rpm for 10 minutes. The resulting blend was compacted in the EKO eccentric compression machine in order to obtain a slug. The slug was milled manually, resulting into a milled blend. The milled blend (440 mg) was accurately weighed and placed in glass, opaque vial. […] The milled blend was then analyzed for a sum of area percent levels of impurities (A^imp) by HPLC. The HPLC was performed on Acquity UPLC BEH C8, 150×2.1 mm, dp=1.7 μm column. The detection with UV light at wavelength of 259 nm was used. The column was eluted, using a gradient method, with aqueous ammonium acetate (10 mM, pH 5.5) and acetonitrile at column temperature of 50° C. for 30 min.

[2] = Water content w(H2O), Karl Fischer method; type: physicochemical
Excerpt: […] The water content can be determined according to the Karl Fischer method as described in Ph. Eur. section 2.5.32. The determination is done by coulometry, preferably Mettler Toledo DL39 Karl Fisher Coulometer, or an equivalent apparatus, including a titration cell without diaphragm. Alternatively, the volumetric Karl Fisher method can be used to determine the water content. […] The water content can be achieved by choosing appropriate ingredients, drying, wetting or combination thereof.

[3] = siponimod adipic acid co-crystal:excipient 1:10 (w/w), excipients substantially dry w(H2O) < 0.5%, closed container, 1 month, 40° C., RH 75%
[4] = Excipients - substantially dry w(H2O) < 0.5%
[5] = Excipients - hydrated w(H2O) ≥ 5%
[6] = Excipients - dry 0.5% ≤ w(H2O) < 5%

| Molecule | A^imp (1 m), sum of area percent levels of impurities [1, 3] [%] | w (H2O) [2, 4] [%] | other results |
| --- | --- | --- | --- |
| CCCCCCCCCCCCCCCCCCCCCC(=O)OCC(CO)OC(=O)CCCCCCCCCCCCCCCCCCCCC (stereo not shown) [Glycerol dibehenate] | 0.08 | 0.1 | – |
| CCCCCCCCCCCCCCCCCC(=O)OCC(O)CO (stereo not shown) [Glycerol monostearate] | 0.12 | 0.2 | – |
| OC[C@H]1O[C@@H](O[C@H]2[C@H](O)[C@@H](O)C(O)O[C@@H]2CO)[C@H](O)[C@@H](O)[C@H]1O (stereo partly shown) [Lactose] | – | – | w (H2O) [2, 5]: 5.0% |
| OC[C@@H](O)[C@@H](O)[C@H](O)[C@H](O)CO [Mannitol] | – | – | w (H2O) [2, 6]: 0.6% |
| CCc1cc(/C(C)=N/OCc2ccc(C3CCCCC3)c(C(F)(F)F)c2)ccc1CN1CC(C(=O)O)C1 [Siponimod adipic acid co-crystal] | – | – | A^imp (1 m), sum of area percent levels of impurities ([1]; Active ingredients, closed container, t = 1 month, 40° C., RH 75%): 0.09%; w (H2O) ([2]; Active ingredients): 0.2% |
| CCCCCCCCCCCCCCCCCCOC(=O)/C=C/C(=O)[O-].[Na+] [Sodium stearyl fumarate] | 0.08 | 0.4 | – |
| CCCCCCCCCCCCCCCCCCO [Stearyl alcohol] | 0.05 | 0.3 | – |
| Isomalt | – | – | w (H2O) [2, 6]: 2.9%; w (H2O) [2, 5]: 5.0% |
| Magnesium stearate | – | 0.2 | A^imp (1 m), sum of area percent levels of impurities [1]: 0.16% |

Source: patent US20260207513A1, “PHARMACEUTICAL COMPOSITION OF SIPONIMOD” (Synthon B.V., priority 2022, published 2026)
